Test results from PubChem BioAssay AID256 (DTP/NCI, 2004).
“And” between values parts separate entries of the source, which are not always exact repeats. Equal entries are not always repeated. Toxic doses and inconclusive results are not listed.

Test system: CD2F1 mice, L1210 leukemia ip, survival T/C
Experiment: NCI In Vivo Anticancer Drug Screen. Data for tumor model L1210 Leukemia (intraperitoneal) in CD2F1 (CDF1) mice
Conditions: higher = longer survival
Method in brief: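 Each value reflects a quotient of treated over vehicle control outcomes in mice with a transplanted tumor.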

[1] = endpoint: mean survival time, dose: 100.0 mg/kg/injection, schedule: Q01DX001 (ip), vehicle: saline with Tween-80
[2] = endpoint: mean survival time, dose: 200.0 mg/kg/injection, schedule: Q01DX001 (ip), vehicle: saline with Tween-80
[3] = endpoint: mean survival time, dose: 400.0 mg/kg/injection, schedule: Q01DX001 (ip), vehicle: saline with Tween-80
[4] = endpoint: mean survival time, dose: 100.0 mg/kg/injection, schedule: Q04DX003 (ip), vehicle: saline with Tween-80
[5] = endpoint: mean survival time, dose: 200.0 mg/kg/injection, schedule: Q04DX003 (ip), vehicle: saline with Tween-80
[6] = endpoint: mean survival time, dose: 400.0 mg/kg/injection, schedule: Q04DX003 (ip), vehicle: saline with Tween-80
[7] = endpoint: mean survival time, dose: 25.0 mg/kg/injection, schedule: Q01DX009 (ip), vehicle: water
[8] = endpoint: mean survival time, dose: 50.0 mg/kg/injection, schedule: Q01DX009 (ip), vehicle: water
[9] = endpoint: mean survival time, dose: 100.0 mg/kg/injection, schedule: Q01DX009 (ip), vehicle: water
[10] = endpoint: mean survival time, dose: 100.0 mg/kg/injection, schedule: Q04DX003 (ip), vehicle: saline
[11] = endpoint: mean survival time, dose: 200.0 mg/kg/injection, schedule: Q01DX009 (ip), vehicle: water
[12] = endpoint: mean survival time, dose: 200.0 mg/kg/injection, schedule: Q04DX003 (ip), vehicle: saline
[13] = endpoint: mean survival time, dose: 50.0 mg/kg/injection, schedule: Q01DX009 (ip), vehicle: saline with Tween-80
[14] = endpoint: mean survival time, dose: 100.0 mg/kg/injection, schedule: Q01DX009 (ip), vehicle: saline with Tween-80
[15] = endpoint: mean survival time, dose: 200.0 mg/kg/injection, schedule: Q01DX009 (ip), vehicle: saline with Tween-80
[16] = endpoint: mean survival time, dose: 400.0 mg/kg/injection, schedule: Q01DX009 (ip), vehicle: saline with Tween-80
[17] = endpoint: mean survival time, dose: 100.0 mg/kg/injection, schedule: Q01DX001 (ip), vehicle: saline
[18] = endpoint: mean survival time, dose: 200.0 mg/kg/injection, schedule: Q01DX001 (ip), vehicle: saline
[19] = endpoint: mean survival time, dose: 25.0 mg/kg/injection, schedule: Q01DX009 (ip), vehicle: saline with Tween-80

Nc1nc2c(ncn2-c2cccc(NC(=O)c3cc(S(=O)(=O)F)ccc3Cl)c2)c(=O)[nH]1 was tested, and the T/C [1] was 88 % of control, the T/C [2] was 94 % of control and the T/C [3] was 94 % of control.
With COc1ccc(C2OC2C(=O)O)cc1OC (stereo not drawn) the T/C [4] was 98 % of control, the T/C [5] was 86 % of control and the T/C [6] was 96 % of control.
For CN1CCC(CO)C1 (stereo not drawn), the T/C [7] was 91 % of control, the T/C (endpoint: mean survival time, dose: 50.0 mg/kg/injection, schedule: Q01DX009 (ip), vehicle: saline) was 109 % of control and the T/C [8] was 87 % of control. The T/C (endpoint: mean survival time, dose: 100.0 mg/kg/injection, schedule: Q01DX009 (ip), vehicle: saline) was 101 % of control, the T/C [9] was 87 % of control and the T/C [10] was 96 % of control. For the same compound, the T/C (endpoint: mean survival time, dose: 200.0 mg/kg/injection, schedule: Q01DX009 (ip), vehicle: saline) was 101 % of control, the T/C [11] was 89 % of control and the T/C [12] was 97 % of control.
In the case of O=S(=O)(O)O.[NH-]C1CCCCC1C1CCCCC1[NH-].[Pt+2] (stereo not drawn), the T/C (endpoint: mean survival time, dose: 3.12 mg/kg/injection, schedule: Q04DX003 (ip), vehicle: distilled water + Tween-80) is reported as 119 % of control and the T/C (endpoint: mean survival time, dose: 12.5 mg/kg/injection, schedule: Q04DX003 (ip), vehicle: distilled water + Tween-80) is reported as 156 % of control.
With CC(Br)C(=O)OC1C=CCCC1 (stereo not drawn) the T/C [13] was 97 % of control and the T/C [14] was 101 % of control.
For COC(=O)C(Cc1ccc(O)cc1)NC(=O)C(C)NC(=O)OCc1ccccc1 (stereo not drawn), the T/C [14] was 92 % of control, the T/C [15] was 93 % of control and the T/C [16] was 88 % of control.
CS(=O)(=O)OCC(=O)NCCCCNC(=O)COS(C)(=O)=O was tested, and the T/C [17] was 101 % of control and the T/C [18] was 101 % of control.
O=C(CNC(=O)Nc1cccc(C(F)(F)F)c1)N/N=C/c1ccccc1O was tested, and the T/C (endpoint: mean survival time, dose: 12.5 mg/kg/injection, schedule: Q01DX009 (ip), vehicle: saline with Tween-80) was 95 % of control, the T/C [19] was 87 % of control and the T/C [13] was 88 % of control. For the same compound, the T/C [14] was 100 % of control and the T/C [15] was 103 % of control.
With COC1SCCCS1 the T/C (endpoint: mean survival time, dose: 12.5 mg/kg/injection, schedule: Q04DX002 (ip), vehicle: saline with Tween-80) was 97 % of control, the T/C (endpoint: mean survival time, dose: 25.0 mg/kg/injection, schedule: Q04DX002 (ip), vehicle: saline with Tween-80) was 108 % of control and the T/C (endpoint: mean survival time, dose: 50.0 mg/kg/injection, schedule: Q04DX002 (ip), vehicle: saline with Tween-80) was 105 % of control.
Cc1c2ccccc2cc2cc[n+]3ccccc3c12 was tested, and the T/C (endpoint: mean survival time, dose: 10.0 mg/kg/injection, schedule: Q01DX009 (ip), vehicle: Klucel (hydroxypropylcellulose) (HPC)) was 92 % of control, the T/C (endpoint: mean survival time, dose: 20.0 mg/kg/injection, schedule: Q01DX009 (ip), vehicle: Klucel (hydroxypropylcellulose) (HPC)) was 103 % of control and the T/C (endpoint: mean survival time, dose: 40.0 mg/kg/injection, schedule: Q01DX009 (ip), vehicle: Klucel (hydroxypropylcellulose) (HPC)) was 92 % of control.
For O=C(c1ccccc1)C(O)c1ccccc1 (stereo not drawn), the T/C [4] was 90 % of control, the T/C [5] was 96 % of control and the T/C [6] was 97 % of control.
In the case of COc1ccc(CC2C(=O)NC(C)C(=O)N(C)C3Cc4ccc(cc4)Oc4cc(ccc4O)CC(C(=O)NC(C)C(=O)NC(C)C(=O)N2C)N(C)C3=O)cc1 (stereo not drawn), the T/C (endpoint: mean survival time, dose: 1.0 mg/kg/injection, schedule: Q01DX009 (ip), vehicle: saline with Tween-80) is reported as 112 % of control, the T/C (endpoint: mean survival time, dose: 2.0 mg/kg/injection, schedule: Q01DX009 (ip), vehicle: saline with Tween-80) is reported as 112 % of control and the T/C (endpoint: mean survival time, dose: 4.0 mg/kg/injection, schedule: Q01DX009 (ip), vehicle: saline with Tween-80) is reported as 116 % of control. The T/C (endpoint: mean survival time, dose: 16.0 mg/kg/injection, schedule: Q01DX009 (ip), vehicle: saline with Tween-80) was 122 % of control, the T/C (endpoint: median survival time, dose: 2.0 mg/kg/injection, schedule: Q01DX009 (ip), vehicle: saline with Tween-80) was 122 % of control and the T/C (endpoint: median survival time, dose: 4.0 mg/kg/injection, schedule: Q01DX009 (ip), vehicle: saline with Tween-80) was 124 % of control. The T/C (endpoint: median survival time, dose: 16.0 mg/kg/injection, schedule: Q01DX009 (ip), vehicle: saline with Tween-80) was 111 % of control.
CC(=O)Nc1ccc(CN(C)N=Nc2ccc(C(=O)O)cc2)cc1 was tested, and the T/C [7] was 95 % of control, the T/C [8] was 97 % of control and the T/C [9] was 106 % of control. For the same compound, the T/C [11] was 86 % of control and the T/C (endpoint: mean survival time, dose: 400.0 mg/kg/injection, schedule: Q01DX009 (ip), vehicle: water) was 95 % of control.
With C1CCC(C2CCCC[N-]2)[N-]C1.CCC(C)C([NH-])C(=O)O.[Cl][Pt] (stereo not drawn) the T/C (endpoint: median survival time, dose: 10.0 mg/kg/injection, schedule: Q04DX003 (ip), vehicle: saline) was 101 % of control, the T/C (endpoint: median survival time, dose: 20.0 mg/kg/injection, schedule: Q04DX003 (ip), vehicle: saline) was 98 % of control and the T/C (endpoint: median survival time, dose: 40.0 mg/kg/injection, schedule: Q04DX003 (ip), vehicle: saline) was 101 % of control. For the same compound, the T/C (endpoint: median survival time, dose: 80.0 mg/kg/injection, schedule: Q04DX003 (ip), vehicle: saline) was 98 % of control.
With CCOC(=O)C(CC)(OC(C)=O)C(=O)C[n+]1ccccc1 (stereo not drawn) the T/C [17] was 108 % of control, the T/C [10] was 101 % of control and the T/C [18] was 106 % of control. The T/C [12] was 101 % of control, the T/C (endpoint: mean survival time, dose: 400.0 mg/kg/injection, schedule: Q01DX001 (ip), vehicle: saline) was 106 % of control and the T/C (endpoint: mean survival time, dose: 400.0 mg/kg/injection, schedule: Q04DX003 (ip), vehicle: saline) was 101 % of control.
With CN(C)C(=S)[S][Sn]([CH3])([CH3])[CH3] the T/C (endpoint: mean survival time, dose: 0.39 mg/kg/injection, schedule: Q01DX009 (ip), vehicle: saline) was 115 % of control, the T/C (endpoint: mean survival time, dose: 0.78 mg/kg/injection, schedule: Q01DX009 (ip), vehicle: saline) was 107 % of control and the T/C (endpoint: mean survival time, dose: 1.56 mg/kg/injection, schedule: Q01DX009 (ip), vehicle: saline) was 95 % of control.
With CCCCC(c1ccccc1)P(=O)(OCC)OCC (stereo not drawn) the T/C [19] was 97 % of control, the T/C [13] was 103 % of control and the T/C [14] was 102 % of control and 111 % of control.
Nc1c2ccccc2c[n+]2ccccc12 was tested, and the T/C (endpoint: mean survival time, dose: 12.5 mg/kg/injection, schedule: Q04DX003 (ip), vehicle: saline) was 112 % of control, the T/C (endpoint: mean survival time, dose: 25.0 mg/kg/injection, schedule: Q04DX003 (ip), vehicle: saline) was 124 % of control and the T/C (endpoint: mean survival time, dose: 50.0 mg/kg/injection, schedule: Q04DX003 (ip), vehicle: saline) was 114 % of control. For the same compound, the T/C [10] was 121 % of control.
In the case of C=CCC(C#N)(CC=C)C(=O)OCC, the T/C (endpoint: mean survival time, dose: 50.0 mg/kg/injection, schedule: Q01DX001 (ip), vehicle: Klucel (hydroxypropylcellulose) (HPC)) is reported as 102 % of control, the T/C (endpoint: mean survival time, dose: 100.0 mg/kg/injection, schedule: Q01DX001 (ip), vehicle: Klucel (hydroxypropylcellulose) (HPC)) is reported as 96 % of control and the T/C (endpoint: mean survival time, dose: 200.0 mg/kg/injection, schedule: Q01DX001 (ip), vehicle: Klucel (hydroxypropylcellulose) (HPC)) is reported as 102 % of control.
With O=C(Nc1ccc(F)c(Cl)c1)N(CCO)C1CCCCC1 the T/C (endpoint: mean survival time, dose: 50.0 mg/kg/injection, schedule: Q01DX009 (ip), vehicle: Klucel (hydroxypropylcellulose) (HPC)) was 91 % of control, the T/C (endpoint: mean survival time, dose: 100.0 mg/kg/injection, schedule: Q01DX009 (ip), vehicle: Klucel (hydroxypropylcellulose) (HPC)) was 102 % of control and the T/C (endpoint: mean survival time, dose: 200.0 mg/kg/injection, schedule: Q01DX009 (ip), vehicle: Klucel (hydroxypropylcellulose) (HPC)) was 95 % of control.
c1ccc(NC(Nc2ccccn2)c2ccncc2)nc1 was tested, and the T/C (endpoint: mean survival time, dose: 54.25 mg/kg/injection, schedule: Q04DX003 (ip), vehicle: saline with Tween-80) was 97 % of control, the T/C [4] was 102 % of control and the T/C (endpoint: mean survival time, dose: 108.5 mg/kg/injection, schedule: Q04DX003 (ip), vehicle: saline with Tween-80) was 103 % of control. For the same compound, the T/C [5] was 108 % of control, the T/C (endpoint: mean survival time, dose: 217.0 mg/kg/injection, schedule: Q04DX003 (ip), vehicle: saline with Tween-80) was 102 % of control and the T/C [6] was 110 % of control. For the same compound, the T/C (endpoint: mean survival time, dose: 434.0 mg/kg/injection, schedule: Q04DX003 (ip), vehicle: saline with Tween-80) was 100 % of control and the T/C (endpoint: mean survival time, dose: 600.0 mg/kg/injection, schedule: Q04DX003 (ip), vehicle: saline with Tween-80) was 113 % of control.
With CON(C)CCOC(=O)c1ccc([N+](=O)[O-])cc1 the T/C [1] was 100 % of control, the T/C [2] was 107 % of control and the T/C [3] was 105 % of control.
In the case of CCCC(C)C1=NC(C)(C)CCO1 (stereo not drawn), the T/C (endpoint: mean survival time, dose: 12.5 mg/kg/injection, schedule: Q04DX002 (ip), vehicle: saline) is reported as 96 % of control, the T/C (endpoint: mean survival time, dose: 25.0 mg/kg/injection, schedule: Q04DX002 (ip), vehicle: saline) is reported as 101 % of control and the T/C (endpoint: mean survival time, dose: 50.0 mg/kg/injection, schedule: Q04DX002 (ip), vehicle: saline) is reported as 93 % of control.
For O=C(Nc1ccccc1)c1ccc(S(=O)(=O)F)cc1, the T/C [14] was 101 % of control, the T/C [15] was 106 % of control and the T/C [16] was 106 % of control.
